# In PMC9897432 (Proceedings of the National Academy of Sciences of the …, 2022):
# Experiments:
# [1] = system: panel of 300 recombinant human kinases; assay type: biochemical; conditions: 0.5 µM, panel of 300 kinases
# [2] = system: osteoclastogenesis; conditions: via off-target actions on M-CSF signaling; cited from earlier work
compound,measurement,setting,value
COc1ccc(N2C(=O)N(c3c(C)cccc3Cl)Cc3cnc(Nc4ccc(C5CCN(C)CC5)cc4OC)nc32)nc1 [YKL-05-099],S(80): portion of kinases tested inhibited >80%,[1],43/300
same,osteoclast maturation (in words),[2],directly blocks osteoclast maturation
